In US11766416B2, “Compositions of β-aminoisobutyric acid and methods for use thereof” (Nanjing Nutrabuilding Bio-tech Co., Ltd., priority 2020, dated 2023):

Assays:
Type in all cases: in vivo, C57BL/6 male mice
[1] = Body weight of high-fat diet obese mice, measured weekly; settings: 150 mg/kg/day oral
Protocol: (§1) 36 C57BL/6 male mice aged about 8 weeks, each having a body mass of approximately 21 g, were randomly assigned to six study groups (GA1, GA2, GB1, GB2, GB3, and GB4) of six mice each. Each animal's body weight is measured by a weight scale and recorded.
(§2) The total experimental time is 16 weeks, divided into two periods: an eight-week induction period and an eight-week treatment period.
(§3) Each study group consisted of 6 animals, and treatment details of the individual study groups are given below: • Group A1 (GA1): Normal mice, maintained on a normal diet (ND) for 8 weeks, receiving neither exercise nor L-BAIBA treatment. • Group A2 (GA2): Normal mice, maintained on a normal diet (ND) for 8 weeks, receiving only L-BAIBA treatment and no exercise. • Group B1 (GB1): Obese mice, maintained on a high-fat diet (HFD) for 8 weeks, receiving neither exercise nor L-BAIBA treatment. • Group B2 (GB2): Obese mice, maintained on HFD for 8 weeks, receiving only exercise and no L-BAIBA treatment. • Group B3 (GB3): Obese mice, maintained on HFD for 8 weeks, receiving only L-BAIBA treatment and no exercise. • Group B4 (GB4): Obese mice, maintained on HFD for 8 weeks, receiving both L-BAIBA treatment and exercise. […]
Throughout the study period, each mouse's body weight was measured weekly by a calibrated electronic digital weighing balance Sartorious BSA32025 (Sartorious AG, Göttingen, Germany). […]

[2] = Blood metabolism-related biomarkers (TG, TCHO, LDL, VLDL) at end of study; settings: HFD-fed obese mice, 150 mg/kg/day oral, relative to same HFD, with or without exercise, without L-BAIBA
Protocol: as §1, §2
(§4) Each study group consisted of 6 animals, and treatment details of the individual study groups are given below: • Group A1 (GA1): Normal mice, maintained on a normal diet (ND) for 8 weeks, receiving neither exercise nor L-BAIBA treatment. • Group A2 (GA2): Normal mice, maintained on a normal diet (ND) for 8 weeks, receiving only L-BAIBA treatment and no exercise. • Group B1 (GB1): Obese mice, maintained on a high-fat diet (HFD) for 8 weeks, receiving neither exercise nor L-BAIBA treatment. • Group B2 (GB2): Obese mice, maintained on HFD for 8 weeks, receiving only exercise and no L-BAIBA treatment. • Group B3 (GB3): Obese mice, maintained on HFD for 8 weeks, receiving only L-BAIBA treatment and no exercise. • Group B4 (GB4): Obese mice, maintained on HFD for 8 weeks, receiving both L-BAIBA treatment and exercise.
Animals receiving L-BAIBA received, via oral administration, 150 mg/kg body weight of L-BAIBA, dissolved in 10 mL/kg body weight of ultrapure water, per day. Animals not receiving L-BAIBA were administered 10 mL/kg body weight of ultrapure water per day. All animals were maintained in a pathogen-free condition under a strict 12-hour alternate light/dark cycle with 12-15 cycles/hour of air exchange. All animals were provided with access to their respective feeds and water ad libitum. All animals were housed under controlled laboratory conditions of temperature and humidity at 23±2° C. and 50±10% RH.
At the end of the study described in Example 1, blood was collected from all test groups and various clinical parameters/biomarkers related to metabolism were determined: triglyceride (TG), total cholesterol (TCHO), low-density lipoprotein (LDL) and very low-density lipoprotein (VLDL).

[3] = Muscular (soleus) and hepatic glycogen content at end of study; settings: HFD-fed obese mice, 150 mg/kg/day oral, relative to same HFD, with or without exercise, without L-BAIBA
Protocol: as §1, §2, §4
Animals receiving L-BAIBA received, via oral administration, 150 mg/kg body weight of L-BAIBA, dissolved in 10 mL/kg body weight of ultrapure water, per day. […]

[4] = Serum insulin and leptin by ELISA (insulin and leptin resistance); settings: HFD-fed obese mice, 150 mg/kg/day oral, end of study, relative to same HFD, with or without exercise, without L-BAIBA
Protocol: as §1, §2, §3
At the end of the study described in Example 1, serum levels of insulin and leptin were quantified in all treatment groups by standard ELISA methods. […]

[5] = Weekly blood glucose level (tail vein, glucometer)
Protocol: as §1
(§5) The total experimental time is 16 weeks, divided into two periods: an eight-week induction period and an eight-week treatment period. […]
(§6) Throughout the study described in Example 1, glucose levels in each mouse's blood were measured weekly (week 9-16) on the starting day of every week, before the day's exercise and L-BAIBA dosing activities. […] Blood glucose levels were monitored pre-dose and at 15, 30, 60 and 120 minutes after administration of the glucose solution. […] The area under the curve (AUC) was calculated and expressed as percentage values.

[6] = Oral glucose tolerance test (OGTT) on day 113; settings: HFD-fed obese mice, 150 mg/kg/day oral, day 113, glucose 2 g/kg oral; relative to same HFD, with or without exercise, without L-BAIBA; FIGS. 6A-7
Protocol: as §1, §5, §6

For `C[C@@H](CN)C(=O)O` [L-BAIBA, L-β-aminoisobutyric acid], the “body weight, GB3 relative to GB1 and GB2” value ([1]; HFD obese mice, L-BAIBA only, no exercise (GB3), vs untreated (GB1) and exercise only (GB2), FIG. 1) was “reduced body weight”, the body weight ([1]; HFD-fed obese mice, 8-week treatment, with or without exercise, relative to same HFD without L-BAIBA) was “greater reduction in body weight” and the “blood triglyceride (TG)” value ([2]; FIG. 2A) was “lower levels”. The “blood total cholesterol (TCHO)” value ([2]; FIG. 2B) was “lower levels”, the “blood low-density lipoprotein (LDL)” value ([2]; FIG. 2C) was “lower levels” and the “blood very low-density lipoprotein (VLDL)” value ([2]; FIG. 2D) was “lower levels”. For the same compound, the hepatic glycogen content ([3]; liver main lobe, FIG. 3A) was “higher”, the muscular glycogen content ([3]; soleus muscle, FIG. 3B) was “higher” and the “insulin resistance (serum insulin)” value ([4]; FIG. 4A) was “improved”. The “leptin resistance (serum leptin)” value ([4]; FIG. 4B) was “improved leptin resistance”, the “blood glucose level of obese mice over the experimental period” value ([5]; HFD obese mice, 150 mg/kg/day oral, weeks 9-16, compared with normal mice (GA1)) was “stable level, close to the level of normal mice (GA1)” and the blood glucose level ([5]; mice receiving 150 mg/kg/day oral, weekly weeks 9-16, GB3 and GB4 relative to GB1 and GB2, FIGS. 5A, 5B) was “greater reduction in blood glucose level”. For the same compound, the “glucose tolerance (OGTT)” value [6] was “better glucose tolerance”.
